Assay results reported in EP4790048A1, “S1PR4 REGULATOR COMPOUND FOR AUTOIMMUNE DISEASE TREATMENT AND APPLICATION THEREOF” (Shengyuan Zetong (Shanghai) Pharmaceutical Co., Ltd, priority 2023, dated 2025).
Numbering of substitutions follows the chain as printed. Like-named read-outs stand apart in the source and are kept apart here. Blank lines part the entries; values can stand above or below the molecule they belong to.

What was measured:
[1] = target: T1, hS1P1 (Homo sapiens, UniProt P21453); assay: Tango β-arrestin recruitment luciferase assay, Tango-hS1P1-CHO; type: cell-based
T1 construct: expressed in transfected cells; host or cells: CHO
Text: (§1) The Tango assay detects ligand-dependent GPCR activity through the interaction between β-arrestin and GPCRs. […] The NTEV fragment and the tetracycline transactivator (tTA), an artificial transcription factor, are fused at the C-terminus of the GPCR, while the CTEV fragment is fused to human β-arrestin 2. To enhance the stability of the interaction between GPCR and β-arrestin, a short sequence from the C-terminus of the human arginine vasopressin receptor 2 (V2 tail) is inserted between the GPCR and NTEV. The V2 tail contains multiple GRK phosphorylation sites, which strengthen β-arrestin binding upon phosphorylation. The CTEV fragment carries the stabile point mutation S219P and is truncated at residue 221 to remove the autoinhibitory C-terminal tail. Meanwhile, β-arrestin 2 is truncated to lack the entire C-terminal tail (residues 383-410 deleted). This truncation confers robust stimulus-dependent receptor desensitization, thereby improving detection sensitivity compared with wild-type β-arrestin 2. The UAS reporter construct consists of upstream activating sequence (UAS) elements, a minimal CMV promoter, and a tTA-dependent luciferase reporter gene. Therefore, constructing Tango cells requires the co-transfection of the above three plasmids into host cells. Upon GPCR activation and β-arrestin recruitment, the TEV enzyme at the β-arrestin terminus cleaves tTA from the GPCR C-terminus. The released tTA initiates tTA-dependent luciferase transcription, and compound activity is ultimately determined by measuring luminescence intensity.
(§2) • 1) Tango cell line from was digested from the culture dish respectively. After cell counting, the cells were plated at a density of 10,000 cells per well with […] into a white opaque 96-well plate (add 60 µL D'Hanks to the surrounding wells), and incubated overnight (20 h) in a 5% CO2 incubator at 37°C. The cell density will reach approximately 90% the next day. • 2) After 20 h, 30 µL of serially diluted compound solution was added to each well. The control group was supplemented with 30 µL F12K complete medium. Each group had three replicate wells. • 3) Samples were collected after 20 h of drug treatment.
(§3) (All compounds were tested at a final concentration of 45 µM, with 9 serial dilutions at 5-fold intervals. 1 µM BAF-312 was used as the positive control for S1PR1, and 25 µM BAF-312 was used as the positive control for S1PR4.

[2] = target: T2, hS1P4-R-79C (Homo sapiens, UniProt O95977, R79C); assay: Tango β-arrestin recruitment luciferase assay, Tango-hS1P4-R-79C-CHO (S1PR4 mutant); type: cell-based; conditions: 20 h drug treatment
T2 construct: expressed in transfected cells; host or cells: CHO
T2 sequence (O95977 1-384 R79C): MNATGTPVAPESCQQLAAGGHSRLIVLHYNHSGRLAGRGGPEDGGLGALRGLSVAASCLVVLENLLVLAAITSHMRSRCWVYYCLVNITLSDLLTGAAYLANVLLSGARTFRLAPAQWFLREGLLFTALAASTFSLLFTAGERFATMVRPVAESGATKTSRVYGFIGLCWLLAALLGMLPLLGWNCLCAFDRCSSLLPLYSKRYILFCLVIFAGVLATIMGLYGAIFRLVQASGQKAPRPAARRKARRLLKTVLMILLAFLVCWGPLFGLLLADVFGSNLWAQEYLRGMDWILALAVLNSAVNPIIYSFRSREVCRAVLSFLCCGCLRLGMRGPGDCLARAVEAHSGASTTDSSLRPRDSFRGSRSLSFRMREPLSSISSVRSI
Text: as §1, §2, §3

[3] = target: T3, S1PR4 (Homo sapiens, UniProt O95977); assay: S1PR4 internalization and recovery test in S1PR4-293T cells; type: cell-based; conditions: 1 µM, 37 °C, 1.5 hours; detected immediately, 5 hours or 20 hours after treatment
T3 construct: expressed in transfected cells; host or cells: 293T
T3 sequence (O95977 1-384): T2 sequence (O95977 1-384 R79C) with C79R
Protocol: Therefore, the recovery degree of S1PR4 after internalization caused by Compound 30 was evaluated, and the recovery effect following receptor internalization caused by Compound 30 was assessed in cells with high S1PR4 expression.

[4] = target: T4, hS1P4 (Homo sapiens, UniProt O95977); assay: Tango β-arrestin recruitment luciferase assay, Tango-hS1P4-CHO; type: cell-based; conditions: S1PR4; Tango-S1PR4-CHO-K1 cells; mean ± SD; read-out: EC50
T4 construct: expressed in transfected cells; host or cells: CHO
T4 sequence (O95977 1-384): T2 sequence (O95977 1-384 R79C) with C79R
Method in brief: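 CHO Tango cells (receptor–V2 tail–TEV/tTA fusion, β-arrestin 2–TEV, UAS-luciferase reporter) plated overnight (20 h) at 37°C, then treated 20 h with compounds, top final 45 µM, 9 five-fold dilutions, triplicates. Luciferase luminescence read; BAF-312 positive control at 1 µM (S1PR1) or 25 µM (S1PR4).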

[5] = target: T5, S1PR3 (Homo sapiens, UniProt Q99500); assay: β-arrestin recruitment, PathHunter CHO-K1-S1PR3 cells; type: cell-based; conditions: mean ± SD, read-out: EC50
T5 construct: expressed in transfected cells

[6] = Pharmacokinetic property testing in rats; type: in vivo, SD rats; conditions: for Tmax: 3 per group
Text: In the structure-activity relationship discussion, the inventors obtained key compound 22. Based on compound 22, the polar head of the compound was modified as chiral pyrrolidine carboxylic acid, yielding selective S1PR4 agonists 30 and 67. We conducted pharmacokinetic property analyses on compounds 22, 30, and 67, respectively.

[7] = system: BALB/c mice; assay: DSS-induced acute ulcerative colitis in mice (Example 6); type: in vivo
Protocol: From Day 0 to Day 14 of the experiment, the mice were weighed daily and their blood and stool conditions were observed, scored and recorded according to the following table (Table 1). Random grouping was performed on Day 1, and modeling was conducted from Day 1 to Day 7. All groups except the Control group were given 3.5% DSS water daily. Re-grouping was performed on Day 8. The Control group and Model group received no medication and were given tap water; the other groups were administered intragastrically with 1 mg/kg, 3 mg/kg, 9 mg/kg, and SASP (Sulfasalazine or Salicylazosulfapyridine) 500 mg/kg, respectively. On Day 15, blood and colon samples were collected, colon length was measured, and a 1-2 cm segment of the colon was fixed with formaldehyde.
(§4) • BALB/c mice, male, 20-22 g • Dextran sulfate sodium MW: 36,000-50,000 (DSS) • 30 1 mg/kg, 3 mg/kg, 9 mg/kg, SASP (500 mg/kg) indicators were observed.
(§5) (1) Clinical Symptom Score: The mice were weighed daily and their blood and stool were observed during the experiment for DAI scoring, which was graded and recorded according to the following table (Table 1).
(§6) (2) After the experiment, the colon was removed, its length measured and weight recorded. The colon-to-body weight index (colon weight/body weight × 100%) and colon swelling rate (colon weight/length × 100%) were calculated.
(§7) Colonic tissue approximately 1 cm from the anal margin (0.5 cm) and ileocecal region tissue were collected for histopathological examination. After H&E staining, the tissues were scored under single-blind conditions to evaluate the level of distal colon inflammation and tissue damage; scoring was performed according to the Ameho criteria and calculated as follows: • Score 0: No abnormal findings in the texture. • Score 1: Mild inflammatory infiltration of the mucosa and/or submucosa (mixed with neutrophils), submucosal edema, punctate mucosal erosion, accompanied by capillary proliferation. The muscularis mucosae is intact. • Score 2: Changes of Score 1 account for more than 50%. • Score 3: Obvious inflammatory infiltration and edema (neutrophils are often predominant); ulcers usually penetrate the muscularis mucosae to reach the submucosa. There is little inflammatory cell infiltration in the muscularis propria and no muscle necrosis. • Score 4: Changes of Score 3 account for more than 50%. • Score 5: Large confluent ulcers with coagulative necrosis, massive neutrophil infiltration at the margins and few monocytes. Necrotic tissue penetrates the muscularis propria. • Score 6: Changes of Score 5 account for more than 50% of the specimen.
The fence function of Occludin separates the apical and basolateral sides of the epithelial cell plasma membrane, restricting the free flow of lipids on the cell membrane, facilitating the formation of cell polarity, maintaining the impermeability and rigidity of the intestinal mucosa, and preventing the entry of pathogenic microorganisms. The barrier function of Occludin can regulate the transport of small molecules and maintain tissue homeostasis. […]

[8] = system: BALB/c mice; assay: DSS-induced chronic ulcerative colitis in mice (Example 6); type: in vivo
Text: BALB/c mice were acclimatized for 7 days before the experiment. From Day 7 to Day 50 of the experiment, the mice were weighed daily and their blood and stool conditions were observed, scored and recorded according to the following table (Table 1). After random grouping, all groups except the Control group were given free access to 2-3% DSS solution for modeling from Day 7 to Day 14, while the Control group received normal drinking water during the same period. One cycle lasted 14 days and was repeated 3 times. Re-grouping was performed at the start of the final cycle to initiate drug administration. The Control group and Model group received no drug but the same solvent. The other groups were intragastrically administered 1 mg/kg, 3 mg/kg, 9 mg/kg, and SASP 500 mg/kg respectively. On Day 45, blood and colon samples were collected, colon length was measured, and a 1-2 cm colon segment was fixed with formaldehyde.
as §4, §5, §6, §7
The fence function of Occludin separates the apical and basolateral sides of the epithelial cell plasma membrane, restricting the free flow of lipids on the cell membrane, facilitating the formation of cell polarity, maintaining the impermeability and rigidity of the intestinal mucosa, and preventing the entry of pathogenic microorganisms. The barrier function of Occludin can regulate the transport of small molecules and maintain tissue homeostasis. The expression and distribution of related proteins are detected by immunohistochemistry.
During modeling, the body weight of mice in the control group increased steadily. In the model group, during the first modeling period, mice were given 3% DSS drinking water ad libitum for 7 days, followed by tap water ad libitum for 7 days. On Day 4 of modeling, the body weight of mice began to decrease generally, reaching the lowest point on Day 8, and then started to rise. During the second modeling period, mice were given 2% DSS drinking water ad libitum for 7 days, followed by tap water ad libitum for 7 days. […]

[9] = β-arrestin recruitment, 20 h drug treatment, top 45 µM, 9 serial 5-fold dilutions, positive control 1 µM BAF-312, read-out: Tango-hS1P1-CHO EC50
[10] = Sprague-Dawley, rat, in vivo, IV (1 mg/kg), male SD rats
[11] = Sprague-Dawley, rat, in vivo, PO (10 mg/kg), male SD rats

T1 sequence (P21453 whole entry): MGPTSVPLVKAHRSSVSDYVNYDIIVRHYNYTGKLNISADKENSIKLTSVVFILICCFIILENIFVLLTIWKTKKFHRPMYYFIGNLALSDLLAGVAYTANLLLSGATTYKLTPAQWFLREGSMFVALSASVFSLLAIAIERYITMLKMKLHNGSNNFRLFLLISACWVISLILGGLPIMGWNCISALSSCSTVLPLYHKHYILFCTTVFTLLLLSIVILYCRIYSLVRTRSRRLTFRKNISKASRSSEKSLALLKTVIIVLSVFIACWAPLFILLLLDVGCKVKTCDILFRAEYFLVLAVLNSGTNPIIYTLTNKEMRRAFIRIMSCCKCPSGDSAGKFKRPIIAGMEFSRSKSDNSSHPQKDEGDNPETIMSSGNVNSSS
T5 sequence (Q99500 whole entry, species assumed): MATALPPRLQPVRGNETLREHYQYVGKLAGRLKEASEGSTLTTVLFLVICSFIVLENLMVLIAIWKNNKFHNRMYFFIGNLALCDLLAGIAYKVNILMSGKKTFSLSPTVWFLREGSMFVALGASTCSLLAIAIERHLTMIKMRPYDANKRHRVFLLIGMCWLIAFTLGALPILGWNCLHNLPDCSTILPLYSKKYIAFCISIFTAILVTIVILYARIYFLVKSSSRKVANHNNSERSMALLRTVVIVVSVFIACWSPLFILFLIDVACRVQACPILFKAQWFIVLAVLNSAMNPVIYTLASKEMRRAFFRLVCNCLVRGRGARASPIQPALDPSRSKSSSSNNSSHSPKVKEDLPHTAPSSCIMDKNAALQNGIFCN

- EC50 [1, 9]: 128 nM
- EC50 [2]: 73.1 nM
Structure (SMILES): CCc1cc(/C(C)=N/OCc2ccc(-c3ccccc3)c(C)c2)ccc1CNCCC(=O)O [Compound 31]

- S1PR4 internalization (expression of S1PR4 receptor on the cell surface) [3]: cannot induce S1PR4 internalization
Structure (SMILES): CCc1cc(/C(C)=N/OCc2ccc(C3CCCCC3)c(C(F)(F)F)c2)ccc1CN1CC(C(=O)O)C1 [BAF312]

- EC50 ([1]; S1PR1, Tango-S1PR1-CHO-K1 cells, mean ± SD, read-out: EC50): 8.52 ± 1.06 nM
- EC50 [4]: 100 ± 21.9 nM
- EC50 [5]: 20.6 ± 3.37 nM
Structure (SMILES): CCCCCCCCCCCCC/C=C/[C@@H](O)[C@@H](N)COP(=O)(O)O [Compound S1P, Sphingosine-1-phosphate, reference compound]
- S1PR4 internalization (expression of S1PR4 receptor on the cell surface) [3]: can induce S1PR4 internalization, with receptor expression recovering after 20 hours

- EC50 [2]: 27 nM
- CL_obs ([6]; IV (1 mg/kg), male SD rats): 34.7 ± 3.17 mL/min/kg
- Vss_obs ([6]; IV (1 mg/kg), male SD rats): 0.88 ± 0.07 L/kg
- CL_obs ([6]; PO (10 mg/kg), male SD rats): 148 ± 64.3 mL/min/kg
- Vss_obs ([6]; PO (10 mg/kg), male SD rats): 27.73 ± 16.85 L/kg
- AUC(0-t) [6, 10]: 476 ± 43.6 ng·h/mL
- Cmax [6, 10]: 995 ± 53.2 ng/mL
- half-life [6, 10]: 25.2 ± 1.8 min
- Tmax [6, 10]: 4.8 min
- AUC(0-t) [6, 11]: 1120 ± 400 ng·h/mL
- Cmax [6, 11]: 544 ± 221 ng/mL
- half-life [6, 11]: 130 ± 57.6 min
- Tmax [6, 11]: 49.8 ± 17.4 min
- bioavailability ([6]; male, Sprague-Dawley, rat, in vivo, oral, 10 mg/kg): 23.5%
- F (%) ([6]; oral bioavailability, PO 10 mg/kg vs IV 1 mg/kg, male SD rats): 23.5%
Structure (SMILES): CCc1cc(/C(C)=N/OCc2ccc(-c3ccccc3)c(C)c2)ccc1CN1CC(C(=O)O)C1 [Compound 22, (E)-1-(2-ethyl-4-(1-((2-methyl-[1,1'-biphenyl]-4-yl)methoxy)imino)ethyl)azetidine-3-carboxylic acid]

- EC50 [1, 9]: 169 nM
- EC50 [2]: 87.2 nM
Structure (SMILES): CCc1cc(/C(C)=N/OCc2ccc(-c3ccccc3)c(C)c2)ccc1CN1CC[C@@H](C(=O)O)C1 [Compound 29]

Structure (SMILES): O=C(O)c1cc(/N=N/c2ccc(S(=O)(=O)Nc3ccccn3)cc2)ccc1O [SASP, Sulfasalazine, reference compound]
- body weight recovery ([7]; 30 at 3 mg/kg, SASP at 500 mg/kg, vs model group): faster body weight recovery with a greater rebound amplitude
- daily DAI score ([7]; 30 treatment groups, SASP 500 mg/kg, vs model group): decreased more rapidly
- colon pathological changes (H&E staining) ([7]; SASP 500 mg/kg): still had inflammatory cell infiltration, but to a lesser extent than the Model group
- survival rate ([7]; SASP 500 mg/kg intragastric from Day 8, 8 mice, model group 75%): 87.5%
- Occludin expression in colonic mucosa (immunohistochemistry) ([7]; vs Model group): the expression of Occludin was increased
- daily DAI score ([8]; 30 treatment group, SASP 500 mg/kg, vs model group): decreased more rapidly
- body weight recovery ([8]; 30 treatment groups (1, 3, 9 mg/kg), SASP 500 mg/kg, vs model group): recovered rapidly and increased substantially
- colon pathological changes (H&E staining) ([8]; SASP 500 mg/kg): inflammatory cell infiltration, but to a lesser extent than the Model group
- Occludin expression in colonic mucosa (immunohistochemistry) ([8]; vs Model group): the expression of Occludin was increased
